In patent publication US12661353B2, “SPT5 inhibitors and uses thereof” (Yeda Research and Development Co. Ltd., priority 2020, dated 2026):

Columns and labels:
Assay type in all cases: cell-based, human
[1] = system: pro-inflammatory genes A20, CCL20, IL6, IL8, CXCL2, JUNB and IEX1; assay: mRNA levels of pro-inflammatory genes under basal conditions, HeLa, RT-qPCR; details: HeLa cells, 2 hours, 50 μM SPI
Protocol: Cell culture—HEK293T, HeLa, MCF7, Jurkat and mouse embryonic fibroblasts (MEFs) cells were grown and maintained in Dulbecco's modified Eagle's medium supplemented with 10% fetal calf serum (Gibco) and 1% penicillin-streptomycin. To avoid NF-κB activity, HeLa cells were kept from reaching confluence and re-plated no more than 10 times following initial thawing. To induce NF-κB activity, cells were treated with […] recombinant human TNF-α (Peprotech) for the indicated times. STHdh Q111 and STHdh Q7 striatal cell lines (Coriell Institute for Medical Research) were grown in Dulbecco's modified Eagle's medium supplemented with 10% fetal calf serum (Gibco), 1% penicillin-streptomycin and 0.4 mg/ml G418 at 33° C. The cells were re-plated no more than 5-6 times, as recommended.
RNA analysis—Total RNA was extracted using Tri-reagent (Bio-Lab Chemicals) and Direct-Zol™ RNA MiniPrep kit (Zymo Research). Following, cDNA was synthesized from […] of total RNA using a High-Capacity cDNA Reverse Transcription Kit (ABI, Thermo Fisher Scientific). cDNA samples were analyzed by quantitative PCR (qPCR) in a ViiA 7 Real-Time PCR System using Fast qPCRBIO SYBR Green Mix (PCR Biosystems).
Thus, a subset of Spt5-responsive pro-inflammatory genes from the aforementioned studies and from others (Aida et al., 2006; Fujita et al., 2009), namely A20, CCL20, IL6, IL8, CXCL2, JUNB and IEX1, were selected and the effect of the identified SPIs on their expression under basal conditions and in response to NF-κB activation was tested (FIGS. 2A-C and 3A-C). Specifically, for analyzing expression under basal conditions, Hela cells were treated with vehicle (DMSO) or SPI for 2 hours and following RNA was extracted and analyzed by RT-qPCR.

[2] = system: TNF-α-induced genes / expressed genes; assay: RNA-seq of 4sU-labeled newly synthesized RNA, with or without TNFα; details: 4sU labeling
Protocol: Cells treated with DMSO or SPI-21 with or without TNFα were metabolically labeled with […] and then RNA was extracted, biotinylated and the newly synthesized transcripts were isolated with streptavidin magnetic beads and subjected to RNA-Seq. Reads were mapped and differentially expressed genes were determined.
(§1) High-throughput sequencing of the total, labeled and Run-On transcripts (RNA-Seq and Gro-seq)—_The RNA-Seq libraries were prepared by the Genomics unit in The Nancy and Stephen Grand Israel National Center for Personalized Medicine (G-INCPM, Weizmann Institute of Science). Samples from 2-hour SPI treatment were prepared using in-house mRNA Seq protocol and polyA capturing and those from 24-hpur and 4sU treatments were prepared using the same protocol w/o PolyA capture (with random hexamers), and sequenced using an Illumina HiSeq 2500 system yielding about 30M SE reads of 61 bases. The GRO-seq RNA samples were reverse transcribed and amplified (15 cycles) using in-house mRNA Seq protocol w/o PolyA capture (with random hexamers) and sequenced in one lane using an Illumina HiSeq High Output (480 million reads, yielding more than 100M SE reads of 47 bases per sample). Each RNA-Seq analysis was carried out using two independent replicates.
(§2) RNA-Seq and GRO-seq Bioinformatics analysis—_For the analysis of the 24 h, 4sU and GRO-seq data, we used the RNA-Seq pipeline of UTAP (Kohen et al. 2019) to determine the differentially expressed genes. For the 2-hour data, reads were mapped to the H. sapiens GRCh38 reference genome using STAR (Dobin et al., 2013) and expression levels for each gene were quantified using htseq-count (Anders et al., 2015). Differentially expressed genes were identified using DESeq2 (Love et al., 2014). […] The reads coverage was calculated using bed files containing the desired genomic regions and orientation (awk command) and the bedtools coverage tool (Quinlan et al., 2010).
To validate that the effects of SPIs are at the transcriptional level, cellular RNA was metabolically labeled with 4-thiouridine (4sU) for 2 hours in the presence of DMSO or SPI-21 in the presence or absence of TNFα. Newly synthesized labeled RNA was then purified and subjected to RNA-seq. […] Thus, the observed reduction in TNFα activation by SPI-21 is highly specific and is a consequence of diminished transcription.

[3] = system: replication-dependent histone genes; assay: RNA-seq after 24-h treatment: replication-dependent histone genes; design: HIST1H2AH level, RNA-seq / HIST1H2AI level, RNA-seq / HIST1H2AK level, RNA-seq / HIST1H2AL level, RNA-seq / HIST1H2BF level, RNA-seq / HIST1H3A level, RNA-seq / HIST1H3B level, RNA-seq / HIST1H3D level, RNA-seq: scale not given here; details: SPI-21 24 h
Protocol: as §1, §2
Since the RNA-seq following treatment with SPI-21 detects only polyadenylated transcripts and the treatment was effected for 2 hours, during which only a fraction of cells is in S-phase, an effect on histone genes was not found. Thus, to investigate further the regulation of histone genes by Spt5 using the identified SPIs, cells were treated for 24 hours with SPI-21 or SPI-18, to allow all cells to pass S-phase at least once. Following, mRNA was extracted and cDNA was prepared using random hexamers and the levels of 4 histone genes were determined. […] Spt5 requirement for expression of histone genes cannot be explained by a positive effect on elongation or mRNA processing since histone genes are very short and are intron-less. […] To resolve the discrepancy between the effect of Spt5 inhibition on steady-state levels and synthesis rate, the possibility that Spt5 is required for the processing of histone mRNAs was considered. In addition to the conserved stem-loop, histone genes have a canonical polyadenylation signal downstream of the stem-loop structure (FIG. 5B). It was therefore considered that Spt5 controls the choice between 3′ end processing via the stem-loop pathway or the polyadenylation pathway of histone pre-mRNAs. To this end, cDNA prepared by random hexamer and Poly-T the ratio between total and poly-A tailed histone genes was determined. […] Thus, the reduction in the histone gene expression upon Spt5 inhibition may be associated, at least in part, to a defect in 3′ end processing.

COc1ccc(C=CC(=O)c2cc(O)ccc2O)cc1 [SPI-21]
Up-regulation of pro-inflammatory genes under basal conditions (i.e. inhibiting proximal promoter pausing of pro-inflammatory genes induced by Spt5) [1]: ++ (++ >3)
fraction of TNF-α-induced genes downregulated ([2]; TNFα): 61%
number of TNF-α-induced genes (of 467) downregulated ([2]; TNFα): 285 genes
fraction of expressed genes downregulated ([2]; basal conditions): 2.2%
number of expressed genes (of 13,890) downregulated ([2]; basal conditions): 301 genes
HIST1H1B level, RNA-seq [3]: 0.4
HIST1H1E level, RNA-seq [3]: 0.5
HIST1H2AG level, RNA-seq [3]: 0.4
HIST1H2AH level, RNA-seq [3]: 0.5
HIST1H2AI level, RNA-seq [3]: 0.5
HIST1H2AK level, RNA-seq [3]: 0.6
HIST1H2AL level, RNA-seq [3]: 0.5
HIST1H2BF level, RNA-seq [3]: 0.5
HIST1H3A level, RNA-seq [3]: 0.4
HIST1H3B level, RNA-seq [3]: 0.5
HIST1H3D level, RNA-seq [3]: 0.4
HIST1H3F level, RNA-seq [3]: 0.5
HIST1H3G level, RNA-seq [3]: 0.5
HIST1H4A level, RNA-seq [3]: 0.5
HIST1H4B level, RNA-seq [3]: 0.5
HIST1H4C level, RNA-seq [3]: 0.7
HIST1H4D level, RNA-seq [3]: 0.5
HIST1H4H level, RNA-seq [3]: 0.7
HIST2H2AC level, RNA-seq [3]: 0.5
HIST2H3D level, RNA-seq [3]: 0.3
